These results are taken from patent US20250009844A1, “MATURATION OF MUCOSAL DEFENSE AND GUT/LUNG FUNCTION IN THE PRETERM INFANT” (Novozymes A/S, priority 2017, published 2025).

Holding throughout (type): in vivo
A short description of experiment [1]: Therapeutic high fat diet model in diet-induced obese mice, weight and fat percentage (Example 2). The conditions noted are these: HFD plus hBD-2 vs standard HFD. An excerpt:
The overall design of the study is shown in FIG. 1, lower panel, “Therapeutic study”. Mice and diets. The experiment elucidates the effect of hBD-2 and HD5 on the microbiota in diet-induced obese mice. A run-in period of 13 weeks where mice were fed a very HFD (60% energy from fat) preceded the intervention. Only mice meeting the criteria of a minimum of 12 gram weight gain (approximately 50% of initial bodyweight) during the run-in period were included in the final analyses. […] They were exposed to all experimental tests, but excluded from the analyses.
Treatment regimen. Before the intervention all mice were MR scanned. Cages of mice were allocated to experimental groups based on their fat mass. All subsequent measures were paired with data from the same mouse before the intervention. A LFD (low fat diet) reference group was running in parallel. As controls for the intervention 2 additional groups were included: a) very HFD and b) LFD. Experimental mice stayed on the very HFD during the intervention. The mice were on the experimental diet for 10 weeks. They were co-housed throughout the experiment, 4 mice per cage, 3 cages per group. All tests ran over 3 days, 1 cage per group per day.

The subject of experiment [2] is SCID mice. Nature of the experiment: Therapeutic, murine, 14 weeks, CD4+CD25+ T cell transfer induced colitis model (Example 4). An excerpt: Treatment regime: 70 female BALB/c mice housed in groups of five per cage were allocated to 7 different treatment groups. Colitis was induced in SCID mice by transplantation of CD4+CD25 Tcells from BALB/c mice. Lymphocytes isolated from spleen and lymph nodes from BALB/c mice were subjected to negative selection of CD4+Tcells. Afterwards, CD4+CD25+cells were positively isolated by binding to the beads from the CD4+Tcell suspensions and the CD4+CD25—were collected from the supernatant. The animals were treated with hBD-2, 0.1 mg/kg s.c. once daily 86consecutive days from day 7 (OD); 1 mg/kg s.c. OD or 3 mg/kg s.c. OD;with mouse anti TNFa 100 μg/mouse s.c. twice weekly (enbrel); with dexamethasone 0.3 mg/kg intraperitoneally OD (dex); with PBS s.c. as vehicle from day 7 and 86 consecutive days (vehicle) or sham treated (sham).
Treatment groups: • 1. 0.1 mg/kg hBD-2, once daily subcutaneously (n=11) • 2. 1 mg/kg hBD-2, once daily subcutaneously (n=11) • 3. 3 mg/kg hBD-2, once daily subcutaneously (n=11) • 4. PBS (hBD-2 vehicle), once daily subcutaneously (n=11) • 5. 0.3 mg/kg Dexamethasone, once daily intraperitoneally (n=11) • 6. 100 μg/mouse soluble human 75-kilodalton TNF receptor linked to Fc portion of IgG1 (Enbrel), twice a week subcutaneously (n=11) • 7. Sham treated group (n=6)
Clinical assessment was based on body weight loss, stool consistency and presence of blood per rectum. The animals were sacrificed on day 95 and colon removed for assessment of weight and myeloperoxidase activity.

Experiment [3] relates to postnatal day 14 C57BL/6J mice. Nature of the experiment: Dithizone/Klebsiella induced necrotizing enterocolitis murine model (Example 9). An excerpt: FIG. 40. Histological scoring system for evaluation of severity of necrotizing enterocolitis in a murine model of Klebsiella/Dithizone induced necrotizing enterocolitis. >2 indicates significant gut inflammation.
Incidence of necrotizing enterocolitis and IL-22 concentration in a murine model of necrotizing enterocolitis. Intestinal mucosal injury consistent with human necrotizing enterocolitis was induced by a combination of Dithizone followed by Klebsiella pneumonia challenge by oral gavage in postnatal day 14 C57BL/6J mice. The severity of necrotizing enterocolitis was assessed by a histological scoring system with a score of >2 indicating significant damage (FIG. 40). Neither Dithizone nor K. pneumonia challenge induced mucosal injury by themselves, but the combination of Dithizone followed by K. pneumonia challenge induced severe and statistically significant mucosal damage measured 16 hours post challenge (FIG. 41).

Experiment [4] deals with BALB/c mice. Nature of the experiment: Murine model of acute graft versus host disease, oral hBD-2 versus cyclosporine (Example 12). As to the method: (§1) Treatment regime: 20 female BALB/c mice were irradiated with 4.5 Gy (2×498 sec) at intervals of at least 4 hours on day 0. Bone marrow was harvested: hind limbs harvested from 2 female WT C57BL/6 mice aseptically. Skeletal muscle was removed and epiphysis cut away. Lumen of bone flushed with PBS and cells pelleted and taken up. Harvest of T-cells: spleens from 2 female WT C57BL/6 mice were meshed through a […] cell strainer into a PBS filled dish. Cells were taken up in PBS and transferred into a 50 mL falcon tube and spun down. Cells were taken up in 1 mL PBS and 20 μL of CD4 microbead +20 μL CD8 microbeads per spleen added for incubation for 20 min at 4 degrees C. Cells were washed with PBS and applied to MACS separation in order to positively select CD4+ and CD8+ cells. Positively selected T-cells were counted and taken up. Transplantation: directly after the second irradiation, all WT BALB/c recipient mice were injected with 5×1.000.000 BM cells (50 μL) i.v. into the retroorbital venous plexus under isoflurane anesthesia. 20 BALB/c mice were treated with 1.2 mg of hBD2/kg BW/day (n=7); 50 mg cyclosporine/kg BW on days 0, 3, 6 and 9 (n=7) or 100 uL PBS per day vial oral gavage (n=6) from day 0-10.
The mice were weighed at regular intervals during the study and survival was monitored for 90 days.

Experiment [5] has as its system BALB/c mice. Nature of the experiment: Murine model of acute graft versus host disease, oral HD5 (Example 13). How it is done: as §1, with “regime: 22” for “regime: 20”, “anesthesia. 22” for “anesthesia. 20”, “of HD5/kg BW/day; 1.2 mg of hBD-2/kg” for “of hBD2/kg”, “BW/day” for “BW/day (n=7); 50 mg cyclosporine/kg BW on days 0, 3, 6 and 9 (n=7)”, “100 μL of” for “100 uL”, “gavage” for “gavage (n=6)”
Survival was monitored for 60 days.

The mark [6] stands for this setting: same three dosing regimens, sacrifice day 95.

Entries after “also recorded” stand apart in the source; their conditions may differ. No end group written: not given here.

As for “human beta defensin 2 (GIGDPVTCLKSGAICHPVFCPRRYKQIGTCGLPGTKCCKKP; ends and bridges not checked; cysteine pairing not given here; listed as Homo sapiens) [hBD-2]”, the Weight gain result in experiment [1] (first 4 weeks post dietary intervention, p=0.07) is reported as “tended to gain less weight the first 4 weeks post dietary intervention, although not significant”; in experiment [1] (from week 4 to the end of the study period, p=0.82), “gained similar weight as the standard HFD group”. For the same substance, in experiment [2] (hBD-2 1 mg/kg s.c. OD, Dexamethasone 0.3 mg/kg i.p. OD, Enbrel 100 μg/mouse s.c. twice weekly, from day 7), the “Clinical score (body weight loss, stool consistency, blood per rectum)” value is “statistically significant and similar effect on clinical score; also recorded: on par with 100 μg/mouse anti TNF-α s.c. twice weekly (Enbrel) and 0.3 mg/kg dexamethasone”. In experiment [2] (setting [6]), the Colon weight result was “statistically significant and similar effect on colon weight; also recorded: on par with 100 μg/mouse anti TNF-α s.c. twice weekly (Enbrel) and 0.3 mg/kg dexamethasone”. Also, the “Myeloperoxidase activity in intestinal tissue” value in experiment [2] (setting [6]) is “statistically significant and similar effect; also recorded: on par with 100 μg/mouse anti TNF-α s.c. twice weekly (Enbrel) and 0.3 mg/kg dexamethasone”. The “Concentration of IL-22” value in experiment [3] (1.2 mg/kg one hour post challenge, 9 hours post challenge) is “statistically significant gut mucosa protective increase of IL-22; also recorded: statistically significantly increased”. Further, the “Incidence of necrotizing enterocolitis (histological score >2)” value in experiment [3] (oral 1.2 mg/kg one dose one hour post K. pneumonia challenge, 16 hours post challenge) was “statistically significant reduction of the incidence of necrotizing enterocolitis; also recorded: dramatically and statistically significantly reduced the incidence of necrotizing enterocolitis to normal”. The Mortality entry in experiment [4] (7 mice oral hBD-2 for 10 days, p=0.03) is “statistically significant reduction of mortality”; in experiment [5] (22 mice, oral treatment for 10 days), “significant reduction of mortality”. Besides, in experiment [4] (compared with the PBS treated mice), the “Weight loss following bone marrow transplantation” value is “lost statistically significantly less weight”. In addition, the “Animals that had died by day 90” value in experiment [4] (hBD2 1.2 mg/kg BW/day day 0-10 (n=7), cyclosporine 50 mg/kg BW on days 0, 3, 6 and 9 (n=7), PBS n=6, all but one died) is recorded as 1. In experiment [5] (1.2 mg/kg BW/day oral gavage day 0-10, HD5 group of 8, PBS six out of eight died), the “Animals that had died by day 60” value is “none”.
